What all share (format): biochemical
Details in all cases: kinase assay by one of methods A, B or C

One experiment deals with T1, BTK (Homo sapiens, UniProt Q06187).
T1 construct: purified from insect cells as a full-length construct containing a N-terminal 6×-His tag; His6 (N); made in house; host or cells: insect cells (baculovirus, Sf21)
The experiment can be described thus: Btk in vitro inhibitory activity / inhibition of a panel of kinases (TR-FRET, mobility shift or radiometric filter binding). How it is done:
(§1) Btk kinase activity is determined using a time-resolved fluorescence resonance energy transfer (TR-FRET) methodology. Measurements are performed in a reaction volume of 50 μL using 96-well assay plates. Kinase enzyme, inhibitor, ATP (at the Km for the kinase), and 1 μM peptide substrate (Biotin-AVLESEEELYSSARQ-NH2) are incubated in a reaction buffer composed of 20 mM Tris, 50 mM NaCl, MgCl2 (5-25 mM depending on the kinase), MnCl2 (0-10 mM), 1 mM DTT, 0.1 mM EDTA, 0.01% bovine serum albumin, 0.005% Tween-20, and 10% DMSO at pH 7.4 for one hour. The reaction is quenched by the addition of 1.2 equivalents of EDTA (relative to divalent cation) in 25 μL of 1× Lance buffer (Perkin-Elmer). Streptavidin-APC (Perkin-Elmer) and Eu-labeled p-Tyr100 antibody (Perkin-Elmer) in 1× Lance buffer are added in a 25 μL volume to give final concentrations of 100 nM and 2.5 nM, respectively, and the mixture is allowed to incubate for one hour. The TR-FRET signal is measured on a multimode plate reader with an excitation wavelength (λEx) of 330 nm and detection wavelengths (λEm) of 615 and 665 nm. Activity is determined by the ratio of the fluorescence at 665 nm to that at 615 nm. For each compound, enzyme activity is measured at various concentrations of compound. Negative control reactions are performed in the absence of inhibitor in replicates of six, and two no-enzyme controls are used to determine baseline fluorescence levels. Inhibition constants, Ki(app), ware obtained using the program BatchKi (Kuzmic et al. (2000), Anal. Biochem. 286:45-50). IC50s are obtained according to the equation: IC50={Ki(app)/(1+[ATP]/Km^ATP)}+[E]total/2;
(§2) For all kinases, [ATP]=Km^ATP, [Btk]total=0.5 nM and [Lck]total=6 nM.
(§3) Kinase activity is measured in vitro using electrophoretic mobility shift assay. The kinase reactions are assembled in a total volume of 25 μL in 384 well plates. The reactions comprise: BTK enzyme (1 nM, N-terminal His6-tagged, recombinant, full-length, human BTK purified from baculovirus Sf21 insect cell system), inhibitor, ATP ([…] the apparent Km for the kinase), fluorescently labeled peptide substrate (1 μM, FAM-GEEPLYWSFPAKKK-NH2) in a reaction buffer composed of 100 mM HEPES, pH7.5, 5 mM MgCl2 1 mM DTT, 0.1% bovine serum albumin, 0.01% Triton X-100, and 1% DMSO. The reaction is incubated for one hour and is quenched by the addition of 45 μL of termination buffer (100 mM HEPES, pH7.5, 0.01% Triton X-100, 30 mM EDTA). The terminated reactions are analyzed using 12 channel LabChip® 3000 microfluidic detection instrument (Caliper Life Sciences). The enzymatic phosphorylation of the peptide results in a change in net charge, enabling electrophoretic separation of product from substrate peptide. As substrate and product peptides are separated, two peaks of fluorescence are observed. Change in the relative fluorescence intensity of the substrate and product peaks is the parameter measured, reflecting enzyme activity. In the presence of an inhibitor, the ratio between product and substrate is altered: the signal of the product decreases, while the signal of the substrate increases.
(§4) Activity in each sample is determined as the product to sum ratio (PSR):P/(S+P), where P is the peak height of the product peptide and S is the peak height of the substrate peptide. For each compound, enzyme activity is measured at various concentrations (12 concentrations of compound spaced by 3× dilution intervals). Negative control samples (0%-inhibition in the absence of inhibitor) and positive control samples (100%-inhibition, in the presence of 20 mM EDTA) are assembled in replicates of four and are used to calculate %-inhibition values for each inhibitor at each concentration. Percent inhibition (Pinh) is determined using following equation: […]

The next experiment has as its target EGFR (Homo sapiens, UniProt P00533). The experiment can be described thus: Inhibition of a panel of kinases: EGFR. On the procedure:
as §1, §2, §3, §4

The next experiment addresses LCK (Homo sapiens, UniProt P06239). The experiment can be described thus: Inhibition of a panel of kinases: LCK. How it is done:
as §1, §2, §3, §4

17 molecules from patent US9540385B2, “Pyrrolopyrimidine compounds as kinase inhibitors” (Pharmacyclics LLC, priority 2012, dated 2017) can be followed below.

By IC50 is commonly meant the concentration at which inhibition is half-maximal.

T1 sequence (Q06187 whole entry): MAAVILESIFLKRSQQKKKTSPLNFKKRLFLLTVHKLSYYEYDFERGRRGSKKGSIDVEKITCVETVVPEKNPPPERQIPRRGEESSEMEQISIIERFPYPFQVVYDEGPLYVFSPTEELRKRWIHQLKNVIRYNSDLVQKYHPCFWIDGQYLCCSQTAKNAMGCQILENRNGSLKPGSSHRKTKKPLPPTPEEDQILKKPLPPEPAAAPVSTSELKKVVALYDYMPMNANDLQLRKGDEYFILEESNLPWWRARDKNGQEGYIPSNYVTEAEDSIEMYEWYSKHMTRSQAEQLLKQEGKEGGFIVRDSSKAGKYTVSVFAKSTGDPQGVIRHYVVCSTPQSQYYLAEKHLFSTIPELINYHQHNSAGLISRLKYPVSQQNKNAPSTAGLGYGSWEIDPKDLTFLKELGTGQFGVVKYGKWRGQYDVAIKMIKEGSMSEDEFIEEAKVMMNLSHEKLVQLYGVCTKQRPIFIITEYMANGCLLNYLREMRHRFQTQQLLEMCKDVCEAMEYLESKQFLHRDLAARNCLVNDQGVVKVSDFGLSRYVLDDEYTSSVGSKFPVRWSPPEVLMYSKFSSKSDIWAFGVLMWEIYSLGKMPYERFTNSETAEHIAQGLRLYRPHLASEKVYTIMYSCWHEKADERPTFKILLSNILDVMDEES
Sequence of LCK (P06239 whole entry, species assumed): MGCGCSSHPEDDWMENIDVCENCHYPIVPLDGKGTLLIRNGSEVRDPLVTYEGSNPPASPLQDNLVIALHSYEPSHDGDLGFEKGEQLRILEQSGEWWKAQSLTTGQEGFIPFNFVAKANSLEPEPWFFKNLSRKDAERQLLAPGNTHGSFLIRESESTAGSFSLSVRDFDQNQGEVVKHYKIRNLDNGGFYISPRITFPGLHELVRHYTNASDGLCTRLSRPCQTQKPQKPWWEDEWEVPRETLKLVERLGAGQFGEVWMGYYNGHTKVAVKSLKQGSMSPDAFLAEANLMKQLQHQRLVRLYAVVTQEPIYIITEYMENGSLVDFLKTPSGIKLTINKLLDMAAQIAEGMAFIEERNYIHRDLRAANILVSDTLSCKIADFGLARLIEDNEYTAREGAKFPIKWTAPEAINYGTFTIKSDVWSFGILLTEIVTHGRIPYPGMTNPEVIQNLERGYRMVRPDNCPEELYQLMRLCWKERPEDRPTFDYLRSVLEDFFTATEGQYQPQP
Sequence of EGFR (P00533 25-1210, species assumed): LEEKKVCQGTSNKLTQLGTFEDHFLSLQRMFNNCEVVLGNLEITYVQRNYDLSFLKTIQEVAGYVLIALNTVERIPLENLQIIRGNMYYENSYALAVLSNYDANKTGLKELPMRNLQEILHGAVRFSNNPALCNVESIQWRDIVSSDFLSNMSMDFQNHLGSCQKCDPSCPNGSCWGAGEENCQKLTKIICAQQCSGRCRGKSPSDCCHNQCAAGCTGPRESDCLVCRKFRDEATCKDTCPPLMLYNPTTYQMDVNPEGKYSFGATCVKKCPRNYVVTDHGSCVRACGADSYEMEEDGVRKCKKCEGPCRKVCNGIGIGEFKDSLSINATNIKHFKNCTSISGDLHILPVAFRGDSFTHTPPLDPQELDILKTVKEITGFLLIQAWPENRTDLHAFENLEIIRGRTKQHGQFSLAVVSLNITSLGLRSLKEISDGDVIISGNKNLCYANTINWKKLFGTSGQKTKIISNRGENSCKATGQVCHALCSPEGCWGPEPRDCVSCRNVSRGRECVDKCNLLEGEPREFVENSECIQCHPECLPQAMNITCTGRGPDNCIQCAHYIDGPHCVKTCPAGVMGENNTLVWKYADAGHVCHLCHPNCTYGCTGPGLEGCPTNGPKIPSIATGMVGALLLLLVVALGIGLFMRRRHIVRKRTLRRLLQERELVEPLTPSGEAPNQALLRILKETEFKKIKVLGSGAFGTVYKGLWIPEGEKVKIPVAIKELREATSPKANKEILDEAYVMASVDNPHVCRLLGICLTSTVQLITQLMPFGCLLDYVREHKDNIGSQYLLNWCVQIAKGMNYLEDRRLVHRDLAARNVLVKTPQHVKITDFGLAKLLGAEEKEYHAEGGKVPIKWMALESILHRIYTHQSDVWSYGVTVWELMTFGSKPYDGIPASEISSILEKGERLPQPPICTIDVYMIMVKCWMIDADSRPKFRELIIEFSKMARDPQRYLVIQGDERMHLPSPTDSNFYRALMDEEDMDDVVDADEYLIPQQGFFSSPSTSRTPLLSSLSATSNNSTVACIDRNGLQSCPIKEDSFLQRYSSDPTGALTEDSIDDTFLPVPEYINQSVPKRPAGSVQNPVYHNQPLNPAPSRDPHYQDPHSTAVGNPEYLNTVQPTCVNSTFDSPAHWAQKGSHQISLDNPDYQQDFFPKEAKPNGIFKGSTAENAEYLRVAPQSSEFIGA

`CN(C/C=C/C(=O)N1CC[C@@H](n2c(F)c(-c3ccc(Oc4ccccc4)cc3)c3c(N)ncnc32)C1)C1CC1` [Compound 5, (R,E)-1-(3-(4-amino-6-fluoro-5-(4-phenoxyphenyl)-7H-pyrrolo[2,3-d]pyrimidin-7-yl)pyrrolidin-1-yl)-4-(cyclopropyl(methyl)amino)but-2-en-1-one]: the figures for the IC50 on BTK, on EGFR and on LCK were under 100 nM, 1 to 10 µM and under 100 nM, respectively. On to `CN(C/C=C/C(=O)N1CC[C@@H](n2c(Cl)c(-c3ccc(Oc4ccccc4)cc3)c3c(N)ncnc32)C1)C1CC1` [Compound 8, (R,E)-1-(3-(4-amino-6-chloro-5-(4-phenoxyphenyl)-7H-pyrrolo[2,3-d]pyrimidin-7-yl)pyrrolidin-1-yl)-4-(cyclopropyl(methyl)amino)but-2-en-1-one], for which the IC50 at BTK was under 100 nM; against EGFR, 1 to 10 µM; at LCK, under 100 nM. In the case of `Cc1c(-c2ccc(Oc3ccccc3)cc2)c2c(N)ncnc2n1[C@@H]1CCN(C(=O)/C=C/CN(C)C2CC2)C1` [Compound 12, (R,E)-1-(3-(4-amino-6-methyl-5-(4-phenoxyphenyl)-7H-pyrrolo[2,3-d]pyrimidin-7-yl)pyrrolidin-1-yl)-4-(cyclopropyl(methyl)amino)but-2-en-1-one], the results for the half-inhibitory concentration (IC50) on BTK, against EGFR and against LCK were under 100 nM, 1 to 10 µM and under 100 nM, respectively. Regarding `CN(C)C/C=C/C(=O)N1CC[C@@H](n2c(F)c(-c3ccc(Oc4ccccc4)cc3)c3c(N)ncnc32)C1` [Compound 13, (R,E)-1-(3-(4-amino-6-fluoro-5-(4-phenoxyphenyl)-7H-pyrrolo[2,3-d]pyrimidin-7-yl)pyrrolidin-1-yl)-4-(dimethylamino)but-2-en-1-one], the IC50 is under 100 nM on BTK, 1 to 10 µM at EGFR and under 100 nM on LCK.

With `CN(C/C=C/C(=O)N1CC[C@@H](n2c(Cl)c(-c3ccc(Cl)cc3)c3c(N)ncnc32)C1)C1CC1` [Compound 38, (R,E)-1-(3-(4-amino-6-chloro-5-(4-chlorophenyl)-7H-pyrrolo[2,3-d]pyrimidin-7-yl)pyrrolidin-1-yl)-4-(cyclopropyl(methyl)amino)but-2-en-1-one], the figures for the IC50 on BTK and against LCK were under 100 nM and 1000 to 10000 nM, respectively. Consider `CN(C/C=C/C(=O)N1CC[C@@H](n2c(C#N)c(-c3ccc(Oc4ccccc4)cc3)c3c(N)ncnc32)C1)[C@@H]1CCOC1` [Compound 107, 4-amino-7-((R)-1-((E)-4-(methyl((R)-tetrahydrofuran-3-yl)amino)but-2-enoyl)pyrrolidin-3-yl)-5-(4-phenoxyphenyl)-7H-pyrrolo[2,3-d]pyrimidine-6-carbonitrile], for which the IC50 on BTK is under 100 nM. Consider `CN(C/C=C/C(=O)N1CC[C@@H](n2c(C#N)c(-c3ccc(Oc4cccc(F)c4)cc3)c3c(N)ncnc32)C1)C1CC1` [Compound 109, (R,E)-4-amino-7-(1-(4-(cyclopropyl(methyl)amino)but-2-enoyl)pyrrolidin-3-yl)-5-(4-(3-fluorophenoxyl)phenyl)-7H-pyrrolo[2,3-d]pyrimidine-6-carbonitrile], for which the IC50 at BTK is under 100 nM. As for `C#Cc1c(-c2ccc(Oc3ccccc3)cc2)c2c(N)ncnc2n1[C@@H]1CCN(C(=O)/C=C/CN(C)C2CC2)C1` [Compound 112, (R,E)-1-(3-(4-amino-6-ethynyl-5-(4-phenoxyphenyl)-7H-pyrrolo[2,3-d]pyrimidin-7-yl)pyrrolidin-1-yl)-4-(cyclopropyl(methyl)amino)but-2-en-1-one], on BTK, the IC50 was under 100 nM.

As to `CCc1c(-c2ccc(Oc3ccccc3)cc2)c2c(N)ncnc2n1[C@@H]1CCN(C(=O)/C=C/CN(C)C2CC2)C1` [Compound 115, (R,E)-1-(3-(4-amino-6-ethyl-5-(4-phenoxyphenyl)-7H-pyrrolo[2,3-d]pyrimidin-7-yl)pyrrolidin-1-yl)-4-(cyclopropyl(methyl)amino)but-2-en-1-one], at BTK, the IC50 lay in the range of 100 to 1000 nM. Take `CC(C)c1c(-c2ccc(Oc3ccccc3)cc2)c2c(N)ncnc2n1[C@@H]1CCN(C(=O)/C=C/CN(C)C2CC2)C1` [Compound 118, (R,E)-1-(3-(4-amino-6-isopropyl-5-(4-phenoxyphenyl)-7H-pyrrolo[2,3-d]pyrimidin-7-yl)pyrrolidin-1-yl)-4-(cyclopropyl(methyl)amino)but-2-en-1-one]: the IC50 on BTK is 100 to 1000 nM. With `CN(C/C=C/C(=O)N1CC[C@@H](n2c(C(F)F)c(-c3ccc(Oc4ccccc4)cc3)c3c(N)ncnc32)C1)C1CC1` [Compound 122, (R,E)-1-(3-(4-amino-6-(difluoromethyl)-5-(4-phenoxyphenyl)-7H-pyrrolo[2,3-d]pyrimidin-7-yl)pyrrolidin-1-yl)-4-(cyclopropyl(methyl)amino)but-2-en-1-one], on BTK, the IC50 was under 100 nM.

Turning to `CN(C/C=C/C(=O)N1CC[C@@H](n2c(-c3ncco3)c(-c3ccc(Oc4ccccc4)cc3)c3c(N)ncnc32)C1)C1CC1` [Compound 124, (R,E)-1-(3-(4-amino-6-(oxazol-2-yl)-5-(4-phenoxyphenyl)-7H-pyrrolo[2,3-d]pyrimidin-7-yl)pyrrolidin-1-yl)-4-(cyclopropyl(methyl)amino)but-2-en-1-one], the IC50 on BTK is under 100 nM. In the case of `CN(C/C=C/C(=O)N1CC[C@@H](n2c(C(N)=O)c(-c3ccc(Oc4ccccc4)cc3)c3c(N)ncnc32)C1)C1CC1` [Compound 126, (R,E)-4-amino-7-(1-(4-(cyclopropyl(methyl)amino)but-2-enoyl)pyrrolidin-3-yl)-5-(4-phenoxyphenyl)-7H-pyrrolo[2,3-d]pyrimidine-6-carboxamide], the IC50 on BTK was under 100 nM. Same read-out and setting: then `CN(C/C=C/C(=O)N1CC[C@@H](n2c(C(=O)O)c(-c3ccc(Oc4ccccc4)cc3)c3c(N)ncnc32)C1)C1CC1` [Compound 128, (R,E)-4-amino-7-(1-(4-(cyclopropyl(methyl)amino)but-2-enoyl)pyrrolidin-3-yl)-5-(4-phenoxyphenyl)-7H-pyrrolo[2,3-d]pyrimidine-6-carboxylic acid], with under 100 nM; and `Cc1c(-c2ccc(Oc3ccccc3)cc2)c2c(N)ncnc2n1[C@@H]1CCN(C(=O)/C=C/CN(C)[C@H]2CCOC2)C1` [Compound 129, (E)-1-((R)-3-(4-amino-6-methyl-5-(4-phenoxyphenyl)-7H-pyrrolo[2,3-d]pyrimidin-7-yl)pyrrolidin-1-yl)-4-(methyl((S)-tetrahydrofuran-3-yl)amino)but-2-en-1-one], with under 100 nM; and `Cc1c(-c2ccc(Oc3ccccc3)cc2)c2c(N)ncnc2n1[C@@H]1CCN(C(=O)/C=C/CN(C)[C@@H]2CCOC2)C1` [Compound 130, (E)-1-((R)-3-(4-amino-6-methyl-5-(4-phenoxyphenyl)-7H-pyrrolo[2,3-d]pyrimidin-7-yl)pyrrolidin-1-yl)-4-(methyl((R)-tetrahydrofuran-3-yl)amino)but-2-en-1-one], with under 100 nM. In the case of `CN(C/C=C/C(=O)N1CC[C@@H](n2c(N)c(-c3ccc(Oc4ccccc4)cc3)c3c(N)ncnc32)C1)C1CC1` [Compound 162, (R,E)-4-(cyclopropyl(methyl)amino)-1-(3-(4,6-diamino-5-(4-phenoxyphenyl)-7H-pyrrolo[2,3-d]pyrimidin-7-yl)pyrrolidin-1-yl)but-2-en-1-one], the concentration for half-maximal inhibition (IC50) on BTK was under 100 nM.
